Measurements as given in patent US5804603A, “Synthesized β-adrenergic blockers derivatives of guaiacol” (National Science Council, priority 1995, dated 1998).
Like-named read-outs stand apart in the source and are kept apart here.

Experiments:
β1 and β2 receptors = conditions: cited from earlier work
β-receptor = β-receptor (Cavia porcellus, UniProt H0W3H1); assay: Receptor binding assay, [3H]-dihydroalprenolol, heart ventricle membranes
Description: Method of receptor binding assay. After punching the heads of guinea pigs, the blood was drained and the heart ventricle immediately removed. The ventricles were placed in 10 vols. of ice-cold buffer (250 mM sucrose, 1 mM Magnesium Chloride, 50 mM Tris-HCl, pH 7.5) and all subsequent procedures were carried out at 4° C. The ventricles were homogenized using a homogenizer 3-4 times. The period of each homogenization took 15 seconds. […] The supernatant was further centrifuged at 10,000 g and the final pellet was resuspended in a small volume of 75 mM Tris buffer containing 25 mM Magnesium Chloride. The membrane protein content was determined by a protein assay dye. The receptor binding assay was initiated by incubating 100 μl of, a membrane protein solution with 50 μl of [^3 H]-dihydroalprenolol(^3 H-DHA) and the competing drugs. Additional buffer was added to increase the reaction volume up to 250 μl. The binding reaction was activated at 25° C. water by constantly shaking for 60 minutes. The binding reaction was stopped by diluting it with 1 ml of ice-cold assay buffer. The solution was then filtered on a Whatman GF/C glass fiber filter paper under vacuum suction. The filters were washed 3 times with ice-cold assay buffer and dried at 60±C. in an oven for 2 hrs. Then 4 ml of scintillation fluid was added and the radioactivity was counted on β-counter.

in vivo = conditions: mouse, mice, read-out: LD50 (95% C.L.)
[1] = tested on: acetic acid-induced writhing syndrome; assay: Acetic acid-induced writhing (antinociceptive test); assay type: in vivo, male mice (ddk strain); conditions: for Protection / Writhes No. (Ave. ± S.E.): 1.25 mg/kg i.p., N = 8; for ED50: Mus musculus, ip, read-out: ED50 (95% C.I.); for Potency ratio: relative to DZ = 1.00
Description: Following the method described by Koster antinociceptive tests were carried out in male mice after intraperitoneal administration of test solution. […] The test solution was administered by intraperitoneal injection of a single dose 0.2 ml (vehicle administered as control). Twenty minutes after injection, 0.2 ml of 0.7% acetic acid was injected intraperitoneally to induce writhing.

[2] = tested on: isolated rat right atrium; assay: Isolated rat right atrium pretreated with reserpine; assay type: cell-based
[3] = tested on: platelet aggregation induced by collagen; assay: Collagen-induced platelet aggregation in platelet rich plasma; assay type: cell-based; conditions: 10 μg/ml collagen, PRP; for IC100: Platelet, FIG. 18, read-out: concentration completely inhibiting platelet aggregation
Description: A monophasic aggregation curve was observed when 10 μg/ml of collagen was added to platelet rich plasma (PRP).

[4] = tested on: heart rate and blood pressure; assay: Heart rate and blood pressure changes of rats induced by guaiacoxypropanolamines; assay type: in vivo
[5] = biological target: T1, Isolated Guinea Pig Atria (Cavia porcellus, UniProt H0W3H1); assay: pA2 on isolated guinea pig atria; assay type: cell-based; conditions: for Kb / pA2, positive chronotropic / pA2, positive inotropic: isolated guinea pig atria; for Potency ratio (PR), positive chronotropic / Potency ratio (PR), positive inotropic: with respect to propranolol
T1 construct: Isolated Guinea Pig Atria; from tissue; host or cells: guinea pig atria (isolated organ)
From the text: The determination of the pA2 is made from experiments in which a fixed concentration of the antagonist is used along with graded concentrations of an agonist acting on the same receptor. The presence of the antagonist shifts the agonist dose-response curve to the right.

β2 adrenergic receptor = biological target: T2, β2 adrenergic receptor (Rattus norvegicus, UniProt P10608); assay: Antagonism of isoproterenolol on isolated rat uterus horns; assay type: cell-based; conditions: 10^-8 -10^-6 M isoproterenolol
T2 construct: from tissue; host or cells: rat uterus horns (isolated organ, stilbestrol and reserpine pretreated)
Description: Female rats were intraperitonealy injected with stilbestrol (1 mg/kg) to elevate the sensitivity of β2 adrenergic receptor in uterus horns. The rats were subsequently administered reserpine to deplete the catecholamine in uterus. The isolated uterus horns were treated with phenoxybenzamine to block the neuronal uptake and the interaction between neuron cells and the adrenergic receptor.

[6] = tested on: heart rate and blood pressure; assay: Heart rate and blood pressure of anesthetized rats (i.v.); assay type: in vivo
From the text: […]. The effect of DZN on heart rate and blood pressure were monitored.
[…]. Exp. Ther., vol. 96, 99-113). The ID50 value is the response of a β drug which produces a response in 50% of […].

platelets = conditions: cited from earlier work
[7] = mice, Litchfield and Wilcoxon method
[8] = 5 min after dosing, 1.0 mg/kg iv, means ± SE (n = 8)
[9] = 10 min after dosing, 1.0 mg/kg iv, means ± SE (n = 8)
[10] = 15 min after dosing, 1.0 mg/kg iv, means ± SE (n = 8)
[11] = 30 min after dosing, 1.0 mg/kg iv, means ± SE (n = 8)
[12] = 60 min after dosing, 1.0 mg/kg iv, means ± SE (n = 8)
[13] = read-out: pA2, positive chronotropic (converted)
[14] = read-out: pA2, positive inotropic (converted)

T1 sequence (H0W3H1 1-470): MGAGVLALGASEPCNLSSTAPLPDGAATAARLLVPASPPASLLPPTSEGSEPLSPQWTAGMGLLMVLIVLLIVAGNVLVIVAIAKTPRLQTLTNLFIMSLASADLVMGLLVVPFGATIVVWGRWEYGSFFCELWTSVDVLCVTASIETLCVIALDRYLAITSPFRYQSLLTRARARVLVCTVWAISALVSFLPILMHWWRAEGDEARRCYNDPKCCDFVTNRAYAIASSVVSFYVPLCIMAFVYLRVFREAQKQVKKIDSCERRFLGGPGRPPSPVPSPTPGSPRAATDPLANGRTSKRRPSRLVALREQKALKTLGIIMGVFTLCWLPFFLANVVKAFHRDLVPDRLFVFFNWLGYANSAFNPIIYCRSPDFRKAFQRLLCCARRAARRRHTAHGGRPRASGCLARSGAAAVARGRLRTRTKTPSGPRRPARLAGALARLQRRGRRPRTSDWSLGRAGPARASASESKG
T2 sequence (P10608 whole entry): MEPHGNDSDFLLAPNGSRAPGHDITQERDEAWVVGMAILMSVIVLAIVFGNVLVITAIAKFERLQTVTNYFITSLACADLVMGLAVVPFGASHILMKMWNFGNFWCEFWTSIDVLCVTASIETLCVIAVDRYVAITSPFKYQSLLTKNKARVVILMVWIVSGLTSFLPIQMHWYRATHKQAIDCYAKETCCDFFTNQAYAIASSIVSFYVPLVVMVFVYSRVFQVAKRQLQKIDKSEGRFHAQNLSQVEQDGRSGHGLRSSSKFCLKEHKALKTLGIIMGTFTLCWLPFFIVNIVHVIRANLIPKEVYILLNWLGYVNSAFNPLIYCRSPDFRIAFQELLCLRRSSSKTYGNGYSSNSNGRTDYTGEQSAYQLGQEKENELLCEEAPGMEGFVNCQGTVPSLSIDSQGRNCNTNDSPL
β-receptor, sequence (H0W3H1 1-470): as the sequence (H0W3H1 1-470) above

Compound	change in BP [4, 8] [mmHg]	change in HR [4, 8] [beats/min]	change in BP [4, 9] [mmHg]	change in HR [4, 9] [beats/min]	change in BP [4, 10] [mmHg]	change in HR [4, 10] [beats/min]	change in BP [4, 11] [mmHg]	change in HR [4, 11] [beats/min]	change in BP [4, 12] [mmHg]	change in HR [4, 12] [beats/min]	Potency ratio (PR), positive chronotropic [5]	Potency ratio (PR), positive inotropic [5]	other results
CC(C)NCC(O)COc1ccc(CC(N)=O)cc1 (racemic) [Atenolol, reference compound]													cardioselectivity (β1 and β2 receptors): possess cardioselectivity
COc1cc(CCC(C)=O)ccc1OCC(O)CNC(C)C (racemic) [ZPN]													EC50 (β-receptor): 11 µM
CCCC(=O)Nc1ccc(OCC(O)CNC(C)C)c(C(C)=O)c1 (stereo not drawn) [Acebutolol]													cardioselectivity (β1 and β2 receptors): possess cardioselectivity
COc1cc(C=CC(C)=O)ccc1O [DZ, 4-(4'-hydroxy-3'-methoxyphenyl)-3-buten-2-one]													LD50 (in vivo; ip): > 1000 mg/kg; LD50 (in vivo; po): > 1000 mg/kg; Protection [1]: 63.06%; Writhes No. (Ave. ± S.E.) [1]: 29.60 ± 3.75; ED50 [1, 7]: 0.38 mg/kg; effect on heart rate ([2]; 10^-9 -10^-5 M): did not affect the heart rate within 10^-9 -10^-5 M; inhibition of collagen-induced platelet aggregation [3]: dose-dependent inhibition of platelet aggregation; IC100 [3]: 250 µM
COc1cc(C=CC(C)=O)ccc1OCC1CO1 (stereo not drawn) [DZE, 4-[4'-(2,3-Epoxypropoxy)-3'-methoxyphenyl]-3-buten-2-one]													Protection [1]: 65.69%; Writhes No. (Ave. ± S.E.) [1]: 27.50 ± 3.32; ED50 [1, 7]: 0.23 mg/kg; Potency ratio [1]: 1.70; inhibition of collagen-induced platelet aggregation [3]: dose-dependent inhibition of platelet aggregation; IC100 [3]: 100 µM
COCCc1ccc(OCC(O)CNC(C)C)cc1 (stereo not drawn) [Metoprolol]													cardioselectivity (β1 and β2 receptors): possess cardioselectivity
CCCCCCCCC(=O)NCc1ccc(OCC(O)CNC(C)(C)C)c(OC)c1 (stereo not drawn) [NH-t-C4 H9, N-[4-o-(2-hydroxy-3-(tert-butylamino)propoxy)-3-methoxybenzyl]-nonamide]	3.13 ± 5.66	-45.00 ± 4.20	3.38 ± 5.08	-37.75 ± 4.44	2.38 ± 5.41	-29.50 ± 5.31	1.25 ± 5.45	-24.88 ± 8.47	4.63 ± 3.51	-18.50 ± 5.13	0.19	0.24	Kb [5, 13]: 0.0398 µM; Kb [5, 14]: 0.0158 µM
CCCCCCCCC(=O)NCc1ccc(OCC(O)CNCC)c(OC)c1 (stereo not drawn) [NHC2 H5, N-[4-o-(2-hydroxy-3-(ethylamino)propoxy)-3-methoxybenzyl]-nonamide]	7.44 ± 3.16	-38.33 ± 5.94	2.56 ± 2.56	-32.22 ± 5.36	1.11 ± 1.78	-28.00 ± 7.02	-2.44 ± 3.05	-21.11 ± 8.75	1.88 ± 1.62	2.56 ± 11.66	0.07	0.07	pA2, positive chronotropic [5]: 6.93 ± 0.09; pA2, positive inotropic [5]: 7.27 ± 0.09
C=CCNCC(O)COc1ccc(CNC(=O)CCCCCCCC)cc1OC (stereo not drawn) [NHC3 H5, N-[4-0-(2-hydroxy-3-(allylamino)propoxy)-3-methoxybenzyl]-nonamide]	-1.56 ± 2.03	-36.78 ± 11.25	-2.67 ± 1.96	-28.22 ± 9.00	-1.89 ± 2.04	-19.89 ± 9.26	-1.11 ± 2.62	-5.00 ± 8.72	4.78 ± 4.96	-7.56 ± 4.14	0.08	0.15	Kb [5, 13]: 0.0933 µM; Kb [5, 14]: 0.0251 µM
CCCCCCCCC(=O)NCc1ccc(OCC(O)CNC)c(OC)c1 (stereo not drawn) [NHCH3, N-[4-o-(2-hydroxy-3-(methylamino)propoxy)-3-methoxybenzyl]-nonamide]	-1.11 ± 2.31	-34.56 ± 6.79	-0.22 ± 2.10	-17.33 ± 5.31	-0.56 ± 1.65	-12.22 ± 4.33	1.89 ± 2.14	14.56 ± 7.73	0.78 ± 1.37	4.78 ± 4.37	0.03	0.05	Kb [5, 13]: 0.295 µM; Kb [5, 14]: 0.0741 µM
CC(C)NCC(O)c1ccc(O)c(O)c1 (stereo not drawn) [isoproterenolol, reference compound]													effect on isolated uterus horn smooth muscle (β2 adrenergic receptor): dose-related decrease in relaxation force; effect on heart rate and contraction force ([2]; FIG. 16): increases the heart rate and contraction force; concentration of isoproterenolol giving maximum effect ([2]; FIG. 17): 3 µM; effect on blood pressure ([6]; isoproterenolol 0.5 mg/kg): decreased blood pressure; effect on heart rate ([6]; isoproterenolol 0.5 mg/kg): increased the heart rate
CC(C)NCC(O)COc1cccc2ccccc12 (stereo not drawn) [propranolol, reference compound]		-57.28 ± 5.94	-6.33 ± 2.16	-63.85 ± 7.18	-6.50 ± 3.26	-65.28 ± 8.43	-4.67 ± 2.66	-62.57 ± 9.06	2.17 ± 3.29	-52.14 ± 10.93			change in BP ([4]; iv, 1 mg/kg, 5 min): -2.83 ± 1.81 mmHg; adherence of platelets on collagen (platelets): inhibit platelet release and the adherence of platelets on collagen; platelet release (platelets): inhibit platelet release; shape change of platelets (platelets): does not inhibit the shape change of platelets; inhibition of collagen-induced platelet aggregation [3]: dose-dependent inhibition of platelet aggregation; effect on isoproterenolol-induced heart rate and blood pressure changes ([6]; FIGS. 6(A), 6(B)): antagonized the effects of isoproterenolol; ED50 ([6]; Rattus norvegicus, iv, anesthetized rats, Litchfield method, read-out: ID50 : heart rate response (95% C.I.)): 0.14 mg/kg; ID50 : heart rate response (95% C.I.) ([6]; i.v., anesthetized rats, Litchfield method): 0.14 (0.96-0.02) mg/kg; time of slightly reduced blood pressure after injection ([6]; i.v., statistical significance not found): 5 to 10 min
COc1cc(CCC(C)=O)ccc1O [zingerone, 4-(4'-hydroxy-3'-methoxyphenyl)-3-butan-2-one, reference compound]													antinociceptive potency relative to DZ [1]: 3 times; Protection [1]: 71.10%; Writhes No. (Ave. ± S.E.) [1]: 20.75 ± 3.40; ED50 [1]: 0.25 mg/kg; Potency ratio [1]: 1.50; inhibition of collagen-induced platelet aggregation [3]: dose-dependent inhibition of platelet aggregation
N-[4-0-(2-hydroxy-3-(3-aminopentylamino)propoxy)-3-methoxybenzyl-]-nonamide [NHC5 H11]	-2.78 ± 2.33	-28.11 ± 9.34	-2.56 ± 1.42	-28.89 ± 6.30	-3.22 ± 1.78	-22.78 ± 5.04	-1.33 ± 1.38	-2.22 ± 7.28	0.67 ± 0.47	-3.33 ± 5.69	0.14	0.07	pA2, positive chronotropic [5]: 7.25 ± 0.10; pA2, positive inotropic [5]: 7.26 ± 0.08
